Reference: ChEMBL document CHEMBL3046077, “Synthesis and theoretic calculations of benzoxazoles and docking studies of their interactions with triosephosphate isomerase” (Med Chem Res, 2013)
≈ marks a conversion by molar mass, not a printed value. Calls of active or inactive are those of the source. The rule behind the calls is not given here.

Assays:
Format in all cases: functional, organism-based
Trypanosoma cruzi [1] = assay: Antitrypanosomal activity against trypomastigote form of Trypanosoma cruzi INC5 at 5 to 250 ug/ml after 24 hr by Neubauer counting method
Trypanosoma cruzi [2] = assay: Antitrypanosomal activity against trypomastigote form of Trypanosoma cruzi NINOA at 5 to 250 ug/ml after 24 hr by Neubauer counting method
Trypanosoma cruzi [3] = assay: Antitrypanosomal activity against trypomastigote form of Trypanosoma cruzi NINOA after 24 hr by Neubauer counting method
Trypanosoma cruzi [4] = assay: Antitrypanosomal activity against trypomastigote form of Trypanosoma cruzi INC5 after 24 hr by Neubauer counting method; conditions: INC5, 24 h

Structure (SMILES) | Activity (Trypanosoma cruzi [1]) | Activity (Trypanosoma cruzi [2]) | IC50 (Trypanosoma cruzi [3]) | IC50 (Trypanosoma cruzi [4])
O=C(O)/C=C/c1nc2ccccc2o1 | Active | Active |  | 
Cc1ccc2nc(/C=C/C(=O)O)oc2c1 |  |  | 266 µg/mL (≈ 1310 µM) | 421 µg/mL (≈ 2070 µM)
O=C(Cn1ccnc1[N+](=O)[O-])NCc1ccccc1 [BENZNIDAZOLE] |  |  | 117 µg/mL (≈ 448 µM) | 205 µg/mL (≈ 786 µM)
